Tests used:
[1] = target: hERG potassium ion channel (Homo sapiens (Human), UniProt Q12809); experiment: hERG Assay (Assay 4); assay type: cell-based; details: HEK293 cells stably transfected with hERG cDNA, pH 7.4, compound at 3 μM, patch clamp, HEK 293 cells transfected with hERG
Experimental: Compounds of the invention were tested in vitro against the hERG (human ether-à-go-go-related gene) potassium ion channel (a surrogate for IKr, the rapidly activating delayed rectifier cardiac potassium ion channel).
The buffer was HEPES-buffered physiological saline (HB-PS) solution composed of: 137 mM NaCl, 4.0 mM KCl, 1.8 mM CaCl2, 1 mM MgCl2, 10 mM HEPES, 10 mM glucose, pH adjusted to 7.4 with NaOH, and 0.3% DMSO. Chemicals used in solution preparation were purchased from Sigma-Aldrich (St. Louis, Mo.), unless otherwise noted, and were of ACS reagent grade purity or higher.
HEK (human embryonic kidney) 293 cells were stably transfected with hERG cDNA.
For the patch clamp experiment, onset and steady state inhibition of hERG potassium current was measured using a pulse pattern with fixed amplitudes (depolarization: +20 mV for 2 s; repolarization: −50 mV for 2 s) repeated at 10 s intervals from a holding potential of −80 mV. Peak tail current was measured during the 2 s step to −50 mV. A steady state was maintained for at least 30 seconds before applying compound or positive control (cisapride). Peak tail currents were measured until a new steady state was achieved.
Data acquisition and analyses were performed using the suite of pCLAMP® (ver. 8.2) programs (MDS Analytical Technologies, Sunnyvale, Calif.). Steady state was defined by the limiting constant rate of change with time (linear time dependence). The steady state before and after each compound application was used to calculate the percentage of current inhibited at each concentration.
Concentration-response data were fit to an equation of the following form: % Inhibition={1−1/[1+([Test]/IC50)N]}*100
where [Test] was the compound concentration, IC50 was the compound concentration at half-maximal inhibition, N was the Hill coefficient, and % Inhibition was the percentage of current inhibited at each compound concentration. Nonlinear least squares fits were solved with the Solver add-in for Excel 2003 (Microsoft, WA) and the IC50 was calculated.

[2] = target: full-length RORγt in Jurkat cells (Homo sapiens (Human), UniProt P51449); experiment: RORγt 5×RORE Assay in Jurkat Cells (Assay 2); assay type: cell-based; details: 5×RORE Nanoluc luciferase reporter, read-out: RORγt5X IC50 Range (nM) (Assay 2)
Experimental: [formula] RORγt 5×RORE Assay in Jurkat Cells (Assay 2)
Compounds of the present invention were tested for RORγ inverse agonist activity in a cell-based, transcriptional activity assay. […] (Promega, Cat. # N1021) using KpnI and HindIII restriction sites. […] Tested compounds were added to the cells in the same media (final concentration of DMSO was 0.1% (v/v)), and the plates were incubated at 37° C./5% CO2 for 16-18 hr. Luciferase activity in the conditioned supernatants was determined with NanoGlo® assay reagents (Promega, Cat.# N1130).

[3] = target: recombinant RORγ Ligand Binding Domain (LBD) protein (Homo sapiens (Human), UniProt P51449); experiment: Radio-Ligand RORγ Binding Assay (Assay 1); details: competition with 25-hydroxy [26,27-3H]-cholesterol, SPA; read-out: RORγ Binding Ki Range (nM) (Assay 1)
Experimental: Radio-Ligand RORγ Binding Assay (Assay 1)
Compounds of the present invention were tested for ability to bind to RORγ in a cell-free competition assay with commercially available radio-ligand (RL), 25-hydroxy [26,27-^3H]-cholesterol (PerkinElmer, Cat. # NET674250UC), for a ligand binding site on a recombinant RORγ Ligand Binding Domain (LBD) protein expressed as a 6×His-Glutathione-S-Transferase (GST) fusion. […] The plate was shaken at 700 rpm for 20 min and incubated for 10 min at rt, after which 40 μL of poly-Lys YSi SPA beads (PerkinElmer, Cat. # RPNQ0010) were added to achieve 50 μg of the beads per well. The plate was incubated on an orbital shaker for 20 min and then for 10 min without agitation at rt. SPA signal for tritium beta radiation was registered on PerkinElmer Microbeta plate reader. […] The percent inhibition vs. concentration data were fit into a four-parameter model, and IC50 values were calculated from the fit as the concentrations corresponding to the inflection points on the dose-response curves.

[4] = tested on: IL-17A production in human whole blood; experiment: Human Whole Blood Assay (Assay 3); assay type: cell-based; details: IL-17A secretion, CytoStim activation, 48 h, 50% blood/media
Experimental: Human Whole Blood Assay (Assay 3)
Compounds of the invention were tested in the human whole blood assay to measure their effects on IL-17A production as determined by cytokine secretion into 50% blood/media supernatant. Mixtures of sodium heparinized whole blood (isolated from healthy human donors) and the T cell activator CytoStim, in the presence or absence of compound, were plated in sterilized, tissue culture-treated 24-well plates. […]
Mixtures were incubated at 37° C./5% CO2 for 48 h, after which, 200 μL of clean supernatant (i.e., no red blood cells) from each well was transferred to a well in a 96-well plate. IL-17A cytokine expression was determined using 25 μL of the transferred supernatant diluted with 25 μL of Diluent 43 from the Human IL-17A V-PLEX™ kit (cat. # K151RFD-4, Meso Scale Discovery, Rockville, Md.). […] The IL-17A V-PLEX™ plates were read using the Meso Scale Discovery Imager (Model 1200). The levels of IL-17A were extrapolated from a standard curve using a four-parameter non-linear fitting model and expressed as pg/mL. […]

Chain of full-length RORγt in Jurkat cells (P51449 other isoform, or with tags, fused parts or gaps): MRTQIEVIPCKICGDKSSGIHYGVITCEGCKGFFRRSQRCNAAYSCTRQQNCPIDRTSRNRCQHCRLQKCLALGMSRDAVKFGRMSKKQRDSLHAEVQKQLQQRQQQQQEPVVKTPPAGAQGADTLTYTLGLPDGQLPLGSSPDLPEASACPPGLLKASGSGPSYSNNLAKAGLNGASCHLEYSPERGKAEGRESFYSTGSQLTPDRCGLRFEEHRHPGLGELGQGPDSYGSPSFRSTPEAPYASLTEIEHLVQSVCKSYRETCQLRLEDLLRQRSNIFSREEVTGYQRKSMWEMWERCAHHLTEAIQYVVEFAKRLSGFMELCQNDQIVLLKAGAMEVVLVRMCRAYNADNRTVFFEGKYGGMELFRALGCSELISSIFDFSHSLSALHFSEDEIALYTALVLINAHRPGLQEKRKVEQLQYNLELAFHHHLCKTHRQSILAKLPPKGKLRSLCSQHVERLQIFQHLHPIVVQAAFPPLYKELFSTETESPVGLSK
Chain of recombinant RORγ Ligand Binding Domain (LBD) protein (P51449 269-508): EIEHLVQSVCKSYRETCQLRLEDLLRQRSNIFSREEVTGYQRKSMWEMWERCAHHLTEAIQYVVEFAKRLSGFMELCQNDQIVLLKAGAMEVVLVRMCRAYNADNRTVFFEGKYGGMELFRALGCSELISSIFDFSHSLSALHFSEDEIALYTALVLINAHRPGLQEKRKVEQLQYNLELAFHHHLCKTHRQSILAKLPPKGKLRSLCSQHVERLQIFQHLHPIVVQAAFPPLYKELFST
Chain of hERG potassium ion channel (Q12809 whole entry): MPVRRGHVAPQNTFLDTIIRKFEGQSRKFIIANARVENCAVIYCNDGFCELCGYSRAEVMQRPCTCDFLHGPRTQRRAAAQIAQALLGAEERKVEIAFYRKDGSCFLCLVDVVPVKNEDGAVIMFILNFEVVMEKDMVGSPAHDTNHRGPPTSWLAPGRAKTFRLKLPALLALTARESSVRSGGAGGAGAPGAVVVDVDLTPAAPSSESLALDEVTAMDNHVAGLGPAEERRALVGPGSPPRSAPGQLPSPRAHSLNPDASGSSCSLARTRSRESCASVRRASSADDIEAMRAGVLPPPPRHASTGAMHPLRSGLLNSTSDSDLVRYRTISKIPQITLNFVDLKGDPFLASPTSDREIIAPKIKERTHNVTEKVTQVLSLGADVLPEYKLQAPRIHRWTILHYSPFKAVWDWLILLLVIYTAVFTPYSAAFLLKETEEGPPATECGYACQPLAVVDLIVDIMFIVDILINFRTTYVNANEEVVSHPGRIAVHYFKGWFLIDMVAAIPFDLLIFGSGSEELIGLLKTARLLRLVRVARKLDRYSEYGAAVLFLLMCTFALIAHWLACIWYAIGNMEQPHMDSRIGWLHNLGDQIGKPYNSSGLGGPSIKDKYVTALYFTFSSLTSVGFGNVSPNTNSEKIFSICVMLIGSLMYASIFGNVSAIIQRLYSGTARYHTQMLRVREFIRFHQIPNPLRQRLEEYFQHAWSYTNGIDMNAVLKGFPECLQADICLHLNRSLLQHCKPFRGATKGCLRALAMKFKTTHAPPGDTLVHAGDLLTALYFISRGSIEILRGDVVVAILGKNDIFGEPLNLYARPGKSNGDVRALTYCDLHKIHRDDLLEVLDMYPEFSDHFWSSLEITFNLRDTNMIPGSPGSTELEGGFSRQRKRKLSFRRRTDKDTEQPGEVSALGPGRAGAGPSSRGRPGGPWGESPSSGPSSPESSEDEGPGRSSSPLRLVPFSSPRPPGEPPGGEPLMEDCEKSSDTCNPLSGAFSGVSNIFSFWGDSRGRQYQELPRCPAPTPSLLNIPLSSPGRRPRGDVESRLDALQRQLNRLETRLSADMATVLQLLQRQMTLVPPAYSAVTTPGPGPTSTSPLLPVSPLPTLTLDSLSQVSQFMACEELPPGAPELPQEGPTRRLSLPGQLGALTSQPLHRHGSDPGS

Compound | IC50 [2] | Ki [3] | inhibition at 3 µM [1] | IC50 [4]
CCS(=O)(=O)c1ccc(CNC(=O)c2cnc3c(c2)CN(C[C@H]2CC[C@H](C(F)(F)F)CC2)[C@H]3C(C)C)cc1 |  |  | 57% | 
CCS(=O)(=O)c1ccc(CNC(=O)c2cnc3c(c2)CN(C[C@H]2CC[C@H](C(F)(F)F)CC2)[C@H]3C(C)C)nc1 |  |  | 45.4% | 
CC[C@H]1c2ncc(C(=O)N[C@@H](COC)c3ccc(S(=O)(=O)CC)cc3)cc2CN1C[C@H]1CC[C@H](C(F)(F)F)OC1 (single isomer, unassigned) [Compound 3] | < 100 nM | < 100 nM | 24.3% | 
CC[C@H]1c2ncc(C(=O)N[C@@H](COC)c3ccc(S(=O)(=O)CC)cc3)cc2CN1C[C@@H]1CC[C@@H](C(F)(F)F)OC1 (single isomer, unassigned) [Compound 4] | < 100 nM | < 100 nM |  | 
CC[C@H]1c2ncc(C(=O)N[C@@H](COC)c3ccc(S(=O)(=O)CC)cc3)cc2CN1C[C@@H]1CC[C@H](C(F)(F)F)OC1 (single isomer, unassigned) [Compound 5] | > 1000 nM | < 100 nM |  | 
CC[C@H]1c2ncc(C(=O)N[C@@H](COC)c3ccc(S(=O)(=O)CC)cc3)cc2CN1C[C@H]1CC[C@@H](C(F)(F)F)OC1 (single isomer, unassigned) [Compound 6] | > 1000 nM | < 100 nM |  | 
CC[C@H]1c2ncc(C(=O)N[C@@H](COC)c3ccc(S(=O)(=O)CC)cc3)cc2CN1C[C@H]1CC[C@H](C(F)(F)F)CC1 [Compound 1, (S)-7-ethyl-N—((R)-1-(4-(ethylsulfonyl)phenyl)-2-methoxyethyl)-6-((trans-4-(trifluoromethyl)cyclohexyl)methyl)-6,7-dihydro-5H-pyrrolo[3,4-b]pyridine-3-carboxamide] | < 100 nM | < 100 nM | 24.3% | < 100 nM
CC[C@H]1c2ncc(C(=O)N[C@@H](COC(N)=O)c3ccc(S(=O)(=O)CC)cc3)cc2CN1C[C@H]1CC[C@H](C(F)(F)F)CC1 [Compound 2, (R)-2-((S)-7-ethyl-6-((trans-4-(trifluoromethyl)cyclohexyl)methyl)-6,7-dihydro-5H-pyrrolo[3,4-b]pyridine-3-carboxamido)-2-(4-(ethylsulfonyl)phenyl)ethyl carbamate] | […] | […] | 38.8% | […]
CCS(=O)(=O)c1ccc([C@@H](COC(N)=O)NC(=O)c2cnc3c(c2)CN(C[C@H]2CC[C@@H](C(F)(F)F)CC2)[C@H]3C(C)C)nc1 [Compound 9] | > 1000 nM | < 100 nM |  | 

Second part, led by results:

IC50 [2] | Ki [3] | Compound | inhibition at 3 µM [1] | IC50 [4]
> 1000 nM | < 100 nM | CCS(=O)(=O)c1ccc([C@H](COC)NC(=O)c2cnc3c(c2)CN(C[C@H]2CC[C@@H](C(F)(F)F)CC2)[C@H]3C(C)C)cc1 [Compound 8] |  | 
< 100 nM | < 100 nM | CCS(=O)(=O)c1ccc([C@H](COC(N)=O)NC(=O)c2cnc3c(c2)CN(C[C@H]2CC[C@H](C(F)(F)F)CC2)[C@H]3C(C)C)nc1 [Compound 10] |  | 
> 1000 nM | < 100 nM | CCS(=O)(=O)c1ccc([C@H](COC(N)=O)NC(=O)c2cnc3c(c2)CN(C[C@H]2CC[C@@H](C(F)(F)F)CC2)[C@H]3C(C)C)cc1 [Compound 11] |  | 
< 100 nM | < 100 nM | CCS(=O)(=O)c1ccc([C@@H](COC(N)=O)NC(=O)c2cnc3c(c2)CN(C[C@H]2CC[C@H](C(F)(F)F)CC2)[C@H]3C(C)C)cc1 [Compound 12] | 38.8% | 
100 to 1000 nM | < 100 nM | CCS(=O)(=O)c1ccc([C@H](COCC(=O)O)NC(=O)c2cnc3c(c2)CN(C[C@H]2CC[C@H](C(F)(F)F)CC2)[C@H]3C(C)C)cc1 [Compound 14] |  | 
< 100 nM | < 100 nM | CCS(=O)(=O)c1ccc([C@H](COC)NC(=O)c2cnc3c(c2)CN(C[C@H]2CC[C@H](C(F)(F)F)CC2)[C@H]3C(C)C)cc1 [Compound 15] | 50% | 

Source: patent publication US9663515B2, “Dihydropyrrolopyridine inhibitors of ROR-gamma” (Vitae Pharmaceuticals, Inc., priority 2014, dated 2017)
